Several values for one entry are separate records, joined by “and”; a condition that tells them apart may be missing. Equal values may be shown once.
What was measured:
[1] = tested on: PMCA-3 (pseudomyxoma peritonei); test: In vivo treatment effect in orthotopic PMCA-3 peritoneal carcinomatosis model; details: PMCA-3, 15 mg/kg
[2] = tested on: PMCA-1 (peritoneal metastases from colorectal cancer); test: In vivo treatment effect in orthotopic PMCA-1 peritoneal carcinomatosis model; details: PMCA-1, 15 mg/kg

## CO[C@H]1C(=O)[C@]2(C)[C@@H](OC)C[C@H]3OC[C@@]3(OC(C)=O)[C@H]2[C@H](OC(=O)c2ccccc2)[C@]2(O)C[C@H](OC(=O)[C@H](O)[C@@H](NC(=O)OC(C)(C)C)c3ccccc3)C(C)=C1C2(C)C [CBZ, cabazitaxel]
[1]; IP (FIG. 6)
  mice still alive at day 60 after the injection: none of the mice
[1]; IV (FIG. 6)
  mice alive at day 70 after the injection: none of the mice
[1]; intraperitoneal (FIG. 2)
  tumor growth (growth index) compared to vehicle treatment: significantly reduced tumor growth
[1]; intraperitoneal, day 100
  mice cured (sacrificed on day 100 with no detectable tumor): No animals were cured
[2]; IP (FIG. 4)
  mice still alive at day 90 after the injection: 4 out of 6
[2]; IV (FIG. 4)
  mice still alive at day 90 after the injection: 3 out of 6
[2]; intraperitoneal (FIG. 1)
  tumor growth (growth index) compared to vehicle treatment: significantly inhibited tumor growth
[2]; intraperitoneal, day 100
  mice cured (sacrificed on day 100 with no detectable tumor): 3/6 and 3 out of 6
